pIC50: −log10 of the molar value. Read-outs that look alike come from different tables or passages of the source.
Legend:
pY705-STAT3 in PBMC = biological target: T1, pY705-STAT3 in PBMC (Homo sapiens, UniProt P40763); experiment: MSD-pSTAT-PBMC Assay (pSTAT3, IL-6 stimulated); format: cell-based; settings: PBMC, compound 3 hrs, then 10 ng/mL IL-6 for 10 min; Table 1114; read-out: pSTAT3
T1 construct: Cryopreserved Peripheral Blood Mononuclear Cells (PBMC) are from AllCells; host or cells: cryopreserved PBMC
In short: (§1)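 Thawed human PBMC rested overnight in IMDM/10% FBS, then got compound for 3 hrs before a 10 min cytokine pulse: 1 ng/mL IL-4 for pSTAT6, 10 ng/mL IL-6 for pSTAT3. Lysates went to MSD sandwich capture on total STAT6 or STAT3 with phospho-specific detection. IC50 came from background-subtracted, DMSO-normalized signal.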

pY641-STAT6 in PBMC = biological target: T2, pY641-STAT6 in PBMC (Homo sapiens, UniProt P42226); experiment: MSD-pSTAT-PBMC Assay (pSTAT6, IL-4 stimulated); format: cell-based; settings: compound 3 hrs, then 1 ng/mL IL-4 for 10 min
T2 construct: Cryopreserved Peripheral Blood Mononuclear Cells (PBMC) are from AllCells; host or cells: cryopreserved PBMC
T2 sequence (P42226 1-847): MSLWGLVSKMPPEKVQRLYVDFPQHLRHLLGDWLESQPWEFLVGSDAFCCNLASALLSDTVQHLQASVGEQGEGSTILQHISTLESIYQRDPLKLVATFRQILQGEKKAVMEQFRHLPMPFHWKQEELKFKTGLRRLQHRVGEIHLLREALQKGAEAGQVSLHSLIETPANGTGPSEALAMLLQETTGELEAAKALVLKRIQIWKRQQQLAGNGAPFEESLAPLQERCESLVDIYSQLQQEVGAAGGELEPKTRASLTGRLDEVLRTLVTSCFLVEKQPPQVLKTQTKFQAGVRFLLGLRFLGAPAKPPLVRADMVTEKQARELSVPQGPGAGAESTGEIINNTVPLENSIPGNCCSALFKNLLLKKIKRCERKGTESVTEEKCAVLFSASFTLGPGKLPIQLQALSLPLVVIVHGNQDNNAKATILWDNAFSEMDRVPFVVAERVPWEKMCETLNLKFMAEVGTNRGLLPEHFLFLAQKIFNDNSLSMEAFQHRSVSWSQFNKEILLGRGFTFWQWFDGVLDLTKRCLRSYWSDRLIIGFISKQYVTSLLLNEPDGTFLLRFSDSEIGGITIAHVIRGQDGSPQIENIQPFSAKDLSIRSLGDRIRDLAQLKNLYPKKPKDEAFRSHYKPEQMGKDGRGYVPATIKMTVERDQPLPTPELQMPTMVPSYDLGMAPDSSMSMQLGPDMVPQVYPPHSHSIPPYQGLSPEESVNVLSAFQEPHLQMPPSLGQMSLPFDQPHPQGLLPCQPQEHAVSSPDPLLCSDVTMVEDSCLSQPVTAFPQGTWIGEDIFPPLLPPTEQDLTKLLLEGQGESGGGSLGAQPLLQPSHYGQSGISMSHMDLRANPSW
In short: as §1

[1] = PBMC, Table 1114, read-out: pSTAT6

T1 sequence (P40763 whole entry): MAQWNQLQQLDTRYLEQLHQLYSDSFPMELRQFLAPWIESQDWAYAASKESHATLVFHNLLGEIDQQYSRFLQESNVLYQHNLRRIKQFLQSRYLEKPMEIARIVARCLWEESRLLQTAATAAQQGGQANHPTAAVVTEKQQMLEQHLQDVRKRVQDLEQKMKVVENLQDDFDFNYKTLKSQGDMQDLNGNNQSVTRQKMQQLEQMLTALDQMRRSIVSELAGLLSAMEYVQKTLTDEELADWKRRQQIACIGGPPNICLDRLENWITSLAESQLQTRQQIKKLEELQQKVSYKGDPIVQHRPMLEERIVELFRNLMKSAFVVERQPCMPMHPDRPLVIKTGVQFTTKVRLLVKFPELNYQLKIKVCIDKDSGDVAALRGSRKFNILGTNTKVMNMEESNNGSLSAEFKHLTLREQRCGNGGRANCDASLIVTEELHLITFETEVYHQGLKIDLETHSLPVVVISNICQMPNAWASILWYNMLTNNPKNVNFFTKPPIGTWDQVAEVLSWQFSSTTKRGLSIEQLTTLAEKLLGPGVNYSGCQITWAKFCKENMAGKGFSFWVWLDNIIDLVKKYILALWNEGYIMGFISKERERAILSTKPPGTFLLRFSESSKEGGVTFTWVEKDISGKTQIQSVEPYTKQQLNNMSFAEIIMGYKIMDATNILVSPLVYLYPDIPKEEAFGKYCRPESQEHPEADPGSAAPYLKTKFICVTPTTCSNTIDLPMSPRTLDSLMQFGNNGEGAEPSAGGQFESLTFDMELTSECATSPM

pIC50 (pY705-STAT3 in PBMC) | pIC50 (pY641-STAT6 in PBMC; [1]) | Compound | pIC50 (pY641-STAT6 in PBMC; STAT6, PBMC, Table 115) | pIC50 (pY641-STAT6 in PBMC; PBMC, Table 115, read-out: STAT6)
6.00 to 7.00 | > 7.00 | CC(C)(C)C(=O)OCOP(=O)(OCOC(=O)C(C)(C)C)C(F)(F)c1ccc2sc(C(=O)N[C@H]3CCCC[C@H]4CC[C@@H](C(=O)N5CC(C#N)C(c6cc[nH]c(=O)c6)C5)N4C3=O)cc2c1 (mixture of isomers) [Compound 147, ((((2-(((3S,6S,10aS)-3-(rel-trans)-3-cyano-4-(2-oxo-1,2-dihydro-pyridin-4-yl)pyrrolidine-1-carbonyl)-5-oxodecahydro-pyrrolo[1,2-a]azocin-6-yl)carbamoyl)benzo[b]thiophen-5-yl)difluoromethyl)phosphoryl)bis (oxy))bis (methylene) bis(2,2-dimethylpropanoate)] |  | 
6.00 to 7.00 | > 7.00 | CCCC(=O)SCCOP(=O)(OCCSC(=O)CCC)C(F)(F)c1ccc2sc(C(=O)N[C@H]3CCCC[C@H]4CC[C@@H](C(=O)N5C[C@@H](C#N)[C@H](c6ccccc6)C5)N4C3=O)cc2c1 (relative stereo) [Compound 126, S,S′-(((((2-(((3S,6S,10aS)-3-(rel-trans)-3-cyano-4-phenylpyrrolidine-1-carbonyl)-5-oxodecahydro-pyrrolo[1,2-a]azocin-6-yl)carbamoyl)benzo[b]thiophen-5-yl)difluoromethyl)phosphoryl)bis(oxy)) bis(ethane-2,1-diyl)) dibutanethioate] |  | 
6.00 to 7.00 | > 7.00 | CC(C)(C)C(=O)OCOP(=O)(OCOC(=O)C(C)(C)C)C(F)(F)c1ccc2sc(C(=O)N[C@H]3CCCCC4CC[C@@H](C(=O)N5C[C@H](C6CCCCC6)[C@@H](C#N)C5)N4C3=O)cc2c1 (relative stereo) [Compound 143, ((((2-(((3S,6S,10aS)-3-(rel-(trans)-3-cyano-4-cyclohexyl-pyrrolidine-1-carbonyl)-5-oxodecahydro-pyrrolo[1,2-a]azocin-6-yl)carbamoyl)benzo[b]thiophen-5-yl)difluoromethyl)phosphoryl)bis (oxy))bis (methylene) bis (2,2-dimethyl-propanaote)] |  | 
5.52 to 6.00 | > 7.00 | CC(C)(C)C(=O)OCOP(=O)(OCOC(=O)C(C)(C)C)C(F)(F)c1ccc2sc(C(=O)N[C@H]3CCCCC[C@H]4CC[C@@H](C(=O)N5C[C@@H](C#N)[C@H](c6ccccc6)C5)N4C3=O)cc2c1 (relative stereo) [Compound 146, ((((2-(((3S,6S,11aS)-3-(rel-(trans)-3-cyano-4-phenylpyrrolidine-1-carbonyl)-5-oxodecahydro-1H-pyrrolo[1,2-a]azonin-6-yl)carbamoyl)benzo[b]thiophen-5-yl)difluoromethyl)phosphoryl)bis (oxy))bis(methylene) bis(2,2-dimethyl-propanoate)] |  | 
6.00 to 7.00 | 6.00 to 7.00 | CC(C)(C)C(=O)OCOP(=O)(OCOC(=O)C(C)(C)C)C(F)(F)c1ccc2sc(C(=O)N[C@@]3(C)CCCCC4CC[C@@H](C(=O)N5C[C@H](c6ccccc6)[C@@H](C#N)C5)N4C3=O)cc2c1 (relative stereo) [Compound 151, ((((2-(((3S,6S,10aS)-3-(rel-trans)-3-cyano-4-phenylpyrrolidine-1-carbonyl)-6-methyl-5-oxodecahydro-pyrrolo[1,2-a]azocin-6-yl)carbamoyl)benzo[b]thiophen-5-yl)difluoromethyl)phosphoryl)bis (oxy))bis (methylene) bis(2,2-dimethylpropanoate)] |  | 
6.00 to 7.00 | 6.00 to 7.00 | CC(C)(C)C(=O)SCCOP(=O)(OCCSC(=O)C(C)(C)C)C(F)(F)c1ccc2sc(C(=O)N[C@H]3CCCC[C@H]4CC[C@@H](C(=O)N5C[C@@H](C#N)[C@H](c6cc[nH]c(=O)c6)C5)N4C3=O)cc2c1 (relative stereo) [Compound 157, S,S′-(((((2-(((3S,6S,10aS)-3-(rel-(trans)-3-cyano-4-(2-oxo-1,2-dihydropyridin-4-yl)pyrrolidine-1-carbonyl)-5-oxodecahydro-pyrrolo[1,2-a]azocin-6-yl)carbamoyl)benzo [b]thiophen-5-yl)difluoromethyl)phosphoryl)bis(oxy))bis(ethane-2,1-diyl)) bis(2,2-dimethylpropane-thioate)] |  | 
> 7.00 | > 7.00 | CC(C)(C)C(=O)OCOP(=O)(OCOC(=O)C(C)(C)C)C(F)(F)c1ccc2sc(C(=O)N[C@H]3CCCC[C@H]4CC[C@@H](C(=O)N5C[C@H](c6ccccc6)[C@@H](C#N)C5)N4C3=O)cc2c1 (relative stereo) [Compound 190, ((((2-(((3S,6S,10aS)-3-(rel- trans)-3-cyano-4-phenyl-pyrrolidine-1-carbonyl)-5-oxodecahydro-pyrrolo[1,2-a]azocin-6-yl)carbamoyl)benzo[b]thiophen-5-yl)difluoro-methyl)phos-phoryl)bis(oxy)) bis(methylene) bis(2,2-dimethyl-propanoate)] |  | 
6.00 to 7.00 | > 7.00 | CC(C)(C)C(=O)OCOP(=O)(OCOC(=O)C(C)(C)C)C(F)(F)c1ccc2ccc(C(=O)N[C@H]3CCCC[C@H]4CC[C@@H](C(=O)N5C[C@H](c6ccccc6)[C@@H](C#N)C5)N4C3=O)cc2c1 (relative stereo) [Compound 194, ((((7-(((3S,6S,10aS)-3-(rel-(trans)-3-cyano-4-phenyl-pyrrolidine-1-carbonyl)-5-oxodecahydro-pyrrolo[1,2-a]azocin-6-yl)carbamoyl)naphthalen-2-yl)difluoro-methyl)phos-phoryl)bis(oxy)) bis(methylene) bis(2,2-dimethyl-propanoate)] |  | 
 |  | CCCOC(=O)[C@H](C)NP(=O)(Oc1ccccc1)C(F)c1ccc2sc(C(=O)N[C@H]3CCCC[C@H]4CC[C@@H](C(=O)N5C(=O)N(c6cccc7c6OC(F)(F)O7)C(=O)C56CC6)N4C3=O)cc2c1 (stereo partly drawn) [Compound 982, propyl (((2-(((3S,6S,10aS)-3-(6-(2,2-difluorobenzo[d][1, 3]dioxol-4-yl)-5,7-dioxo-4,6-diazaspiro [2.4]heptane-4-carbonyl)-5-oxodecahydropyrrolo [1,2-a]azocin-6-yl)carbamoyl)benzo [b]thiophen-5-yl)fluoromethyl) (phenoxy)phosphoryl)-L-alaninate] | < 5.52 | 
 |  | CCCOC(=O)[C@H](C)NP(=O)(Oc1ccccc1)C(F)c1ccc2sc(C(=O)N[C@H]3CCCC[C@H]4CC[C@@H](C(=O)N5C(=O)N(c6cccnc6)C(=O)C5(C)C)N4C3=O)cc2c1 (stereo partly drawn) [Compound 989, propyl (((2-(((3S,6S,10aS)-3-(5,5-dimethyl-2,4-dioxo-3-(pyridin-3-yl)imidazolidine-1-carbonyl)-5-oxodecahydropyrrolo [1,2-a]azocin-6-yl)carbamoyl)benzo [b]thiophen-5-yl)fluoromethyl) (phenoxy)phosphoryl)-L-alaninate] | < 5.52 | 
 |  | CCCOC(=O)[C@H](C)NP(=O)(Oc1ccccc1)C(F)c1ccc2sc(C(=O)N[C@H]3CCCC[C@H]4CC[C@@H](C(=O)N5C(=O)N(c6cccnc6)C(=O)C56CCC6)N4C3=O)cc2c1 (stereo partly drawn) [Compound 992, propyl (((2-(((3S,6S,10aS)-3-(6,8-dioxo-7-(pyridin-3-yl)-5,7-diazaspiro[3.4]octane-5-carbonyl)-5-oxodecahydropyrrolo [1,2-a]azocin-6-yl)carbamoyl)benzo [b]thiophen-5-yl)fluoromethyl) (phenoxy)phosphoryl)-L-alaninate] | 6.00 to 7.00 | 
 |  | (4-methyl- 112,212,4- triazolidin-3- yl)methyl (((1R)- fluoro(2- (((3S,6S,9aS)-5- oxo-3-((R)-6- (pyridin-3-yl)-4- azaspiro[2.4]heptane- 4- carbonyl)octahydro- 1H-pyrrolo[1,2- a]azepin-6- yl)carbamoyl)-2,3- dihydrobenzo[b] thiophen-5- yl)methyl)(phenoxy) phosphoryl)-L- alaninate [Compound 373] |  | < 5.52

— patent US20250215029A1 (Recludix Pharma, Inc., priority 2022, published 2025)
